Assay results reported in patent US12291529B2, “Heterocyclic GLP-1 agonists” (Gasherbrum Bio, Inc., priority 2023, dated 2025).

Target: GLP-1 Receptor (Homo sapiens, UniProt P43220)
Test: GLP-1R agonist cAMP stimulation assay (HEK293/GLP1R/CRE-LUC cells, Cisbio cAMP dynamic 2 kit)
Format: cell-based
Conditions: Table 3, HEK293/GLP1R/CRE-LUC cells, 30 min
Procedure: Activation of GLP-1 receptor is known to stimulate cyclic AMP (cAMP) production in cells which indicates primary coupling to the G as subunit of the G protein heterotrimeric complex.
To optimize functional activity directed toward G as coupling, a HEK293/CRE-Luc cell line developed by HDB stably expressing the GLP-1 Receptor was used. 200× concentration of compound working solutions were prepared (Agilent Technologies Bravo) with ½ log serial dilution in 384-well Echo LDV plate (Labcyte, CatOLP-0200). 50 nL/well 200× concentration of compound working solutions were moved to 384-well white low volume plate (Greiner, Cat4784075) using Labcyte ECH0550.1×10^5 cells/mL HEK293/GLP1R/CRE-LUC (HD Biosciences) cell suspensions prepared with assay buffer (DPBS containing 0.5 mM IBMX (Sigma, Cat15879) and 0.10 BSA (GENVIEW, Cat4FA016-100g)), 10 uL cell suspensions were added to each well of previous generated assay plate which already contains 50 n^1 compound at 200 xconcentration using ThermioFisher Multidrop Combi (1000 cells/well). Seal the plate and incubate at 37 with […] for 30 m.
After incubation the cAMP assay signal was generated using cAMP dynamic 2 Kit (Cisbio). 5 μL cAMP-d2 working solution was added to each well, followed with 5 L Anti-cAMP antibody-cryptate working solution added to each well using ThermoFisher Multidrop Combi. Incubate at room temperature for 1 hour protected from light. Read the fluorescence at 665 and 615 nm with Reader PerkinElmer EnVision. % oActivity=100%×(mean RLU of test sample−mean RLU of vehicle control)/(mean RLU of MAX control−mean RLU of vehicle control)

Sequence of GLP-1 Receptor (P43220 24-463, species assumed): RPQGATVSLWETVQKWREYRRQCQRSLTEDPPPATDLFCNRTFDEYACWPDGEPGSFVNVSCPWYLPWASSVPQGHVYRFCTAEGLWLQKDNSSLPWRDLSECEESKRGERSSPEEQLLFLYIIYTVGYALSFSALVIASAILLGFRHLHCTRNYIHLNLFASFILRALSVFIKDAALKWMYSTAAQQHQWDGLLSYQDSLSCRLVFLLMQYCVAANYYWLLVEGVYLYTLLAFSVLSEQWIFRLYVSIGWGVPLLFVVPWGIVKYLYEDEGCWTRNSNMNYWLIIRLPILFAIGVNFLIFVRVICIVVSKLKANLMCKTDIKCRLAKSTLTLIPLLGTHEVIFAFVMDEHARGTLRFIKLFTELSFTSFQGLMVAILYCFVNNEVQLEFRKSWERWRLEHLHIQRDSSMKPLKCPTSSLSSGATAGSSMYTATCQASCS

Compound | EC50 [nM]
CCS(=O)(=NC)c1ccc(-n2ccn(-c3c4c(nn3-c3cc(C)c(F)c(C)c3)CCN(C(=O)c3cc5cc(C6CCOCC6)ccc5n3Cc3ccc(C)nc3)[C@H]4C)c2=O)c(F)c1 (single isomer, unassigned) [Compound 171] | 8.8
Cc1cc(-n2nc3c(c2-n2ccn(-c4ccc(S5(=O)=NCCC5)cc4)c2=O)[C@H](C)N(C(=O)c2cc4cc(C5CCOCC5)ccc4n2C2(c4nnn[nH]4)CC2)CC3)cc(C)c1F (single isomer, unassigned) [Compound 172] | 0.037
CC[C@H]1C[C@]1(c1noc(=O)[nH]1)n1c(C(=O)N2CCc3nn(-c4cc(C)c(F)c(C)c4)c(-n4ccn(-c5ccc(S(=N)(=O)CC)cc5F)c4=O)c3[C@@H]2C)cc2cc(C3CCOCC3)ccc21 (single isomer, unassigned) [Compound 173] | 0.012
Cc1cc(-n2nc3c(c2-n2ccn(-c4ccc(C5(S(C)(=N)=O)CC5)cc4)c2=O)[C@H](C)N(C(=O)c2cc4cc(C5CCOCC5)ccc4n2[C@@]2(c4noc(=O)[nH]4)C[C@@H]2C)CC3)cc(C)c1F (single isomer, unassigned) [Compound 176] | 0.024
Cc1cc(-n2nc3c(c2-n2ccn(-c4ccc(S(=N)(=O)CC5CC5)cc4F)c2=O)[C@H](C)N(C(=O)c2cc4cc(C5CCOCC5)ccc4n2[C@@]2(c4noc(=O)[nH]4)C[C@@H]2C)CC3)cc(C)c1F (single isomer, unassigned) [Compound 178] | 0.094
Cc1cc(-n2nc3c(c2-n2ccn(-c4ccc5c(c4F)CCN=S5(C)=O)c2=O)[C@H](C)N(C(=O)c2cc4cc([C@H]5CCOC(C)(C)C5)ccc4n2[C@@]2(c4noc(=O)[nH]4)C[C@@H]2C)CC3)cc(C)c1F (single isomer, unassigned) [Compound 185] | 0.016
Cc1cc(-n2nc3c(c2-n2ccn(-c4ccc5c(c4F)CN=S5(=O)C4CC4)c2=O)[C@H](C)N(C(=O)c2cc4cc([C@H]5CCOC(C)(C)C5)ccc4n2[C@@]2(c4noc(=O)[nH]4)C[C@@H]2C)CC3)cc(C)c1F (single isomer, unassigned) [Compound 192] | 0.02
CN=S(=O)(c1cc(F)c(-n2ccn(-c3c4c(nn3-c3cc(C)c(F)c(C)c3)CCN(C(=O)c3cc5cc([C@H]6CCOC(C)(C)C6)ccc5n3[C@@]3(c5noc(=O)[nH]5)C[C@@H]3C)[C@H]4C)c2=O)cc1C)C1CC1 (single isomer, unassigned) [Compound 193] | 0.1
CN=S(=O)(c1cc(F)c(-n2ccn(-c3c4c(nn3-c3cc(C)c(F)c(C)c3)CCN(C(=O)c3cc5cc([C@H]6CCOC(C)(C)C6)ccc5n3[C@@]3(c5noc(=O)[nH]5)C[C@@H]3C)[C@H]4C)c2=O)cc1C)C1CC1 (single isomer, unassigned) [Compound 194] | 0.046
Cc1cc(-n2nc3c(c2-n2ccn(-c4ccc5c(c4F)CCN=S5(=O)C4CC4)c2=O)[C@H](C)N(C(=O)c2cc4cc([C@H]5CCOC(C)(C)C5)ccc4n2[C@@]2(c4noc(=O)[nH]4)C[C@@H]2C)CC3)cc(C)c1F (single isomer, unassigned) [Compound 197] | 0.018
Cc1cc(-n2nc3c(c2-n2ccn(-c4ccc5c(c4F)CCN=S5(=O)C4CC4)c2=O)[C@H](C)N(C(=O)c2cc4cc([C@H]5CCOC(C)(C)C5)ccc4n2[C@@]2(c4noc(=O)[nH]4)C[C@@H]2C)CC3)cc(C)c1F (single isomer, unassigned) [Compound 198] | 0.023

Next, values leading:

EC50 [nM] | Compound
1.8 | CCS(=O)(=NC)c1ccc(-n2ccn(-c3c4c(nn3-c3cc(C)c(F)c(C)c3)CCN(C(=O)c3cc5cc(C6CCOCC6)ccc5n3Cc3cnc(C)cn3)[C@H]4C)c2=O)c(F)c1 (single isomer, unassigned) [Compound 170]
0.067 | Cc1cc(-n2nc3c(c2-n2ccn(-c4ccc(CS(C)(=N)=O)cc4F)c2=O)[C@H](C)N(C(=O)c2cc4cc(C5CCOCC5)ccc4n2[C@@]2(c4noc(=O)[nH]4)C[C@@H]2C)CC3)cc(C)c1F (single isomer, unassigned) [Compound 174]
0.025 | Cc1cc(-n2nc3c(c2-n2ccn(-c4ccc(CS(C)(=N)=O)cc4F)c2=O)[C@H](C)N(C(=O)c2cc4cc(C5CCOCC5)ccc4n2[C@@]2(c4noc(=O)[nH]4)C[C@@H]2C)CC3)cc(C)c1F (single isomer, unassigned) [Compound 175]
0.026 | Cc1cc(-n2nc3c(c2-n2ccn(-c4ccc(C5(S(C)(=N)=O)CC5)cc4)c2=O)[C@H](C)N(C(=O)c2cc4cc(C5CCOCC5)ccc4n2[C@@]2(c4noc(=O)[nH]4)C[C@@H]2C)CC3)cc(C)c1F (single isomer, unassigned) [Compound 177]
0.077 | Cc1cc(-n2nc3c(c2-n2ccn(-c4ccc(C5CCS(=N)(=O)CC5)cc4)c2=O)[C@H](C)N(C(=O)c2cc4cc(C5CCOCC5)ccc4n2[C@@]2(c4noc(=O)[nH]4)C[C@@H]2C)CC3)cc(C)c1F (single isomer, unassigned) [Compound 182]
0.01 | Cc1cc(-n2nc3c(c2-n2ccn(-c4ccc(S(=N)(=O)CC5CC5)cc4F)c2=O)[C@H](C)N(C(=O)c2cc4cc([C@H]5CCOC(C)(C)C5)ccc4n2[C@@]2(c4noc(=O)[nH]4)C[C@@H]2C)CC3)cc(C)c1F (single isomer, unassigned) [Compound 184]
0.0047 | Cc1cc(-n2nc3c(c2-n2ccn(-c4ccc5c(c4F)CCN=S5(C)=O)c2=O)[C@H](C)N(C(=O)c2cc4cc([C@H]5CCOC(C)(C)C5)ccc4n2[C@@]2(c4noc(=O)[nH]4)C[C@@H]2C)CC3)cc(C)c1F (single isomer, unassigned) [Compound 186]
0.01 | Cc1cc(-n2nc3c(c2-n2ccn(-c4ccc5c(c4F)CN=S5(C)=O)c2=O)[C@H](C)N(C(=O)c2cc4cc([C@H]5CCOC(C)(C)C5)ccc4n2[C@@]2(c4noc(=O)[nH]4)C[C@@H]2C)CC3)cc(C)c1F (single isomer, unassigned) [Compound 187]
0.017 | Cc1cc(-n2nc3c(c2-n2ccn(-c4ccc5c(c4F)CN=S5(C)=O)c2=O)[C@H](C)N(C(=O)c2cc4cc([C@H]5CCOC(C)(C)C5)ccc4n2[C@@]2(c4noc(=O)[nH]4)C[C@@H]2C)CC3)cc(C)c1F (single isomer, unassigned) [Compound 188]
0.047 | Cc1cc(-n2ccn(-c3c4c(nn3-c3cc(C)c(F)c(C)c3)CCN(C(=O)c3cc5cc([C@H]6CCOC(C)(C)C6)ccc5n3[C@@]3(c5noc(=O)[nH]5)C[C@@H]3C)[C@H]4C)c2=O)c(F)cc1S(=N)(=O)C1CC1 (single isomer, unassigned) [Compound 189]
0.026 | Cc1cc(-n2ccn(-c3c4c(nn3-c3cc(C)c(F)c(C)c3)CCN(C(=O)c3cc5cc([C@H]6CCOC(C)(C)C6)ccc5n3[C@@]3(c5noc(=O)[nH]5)C[C@@H]3C)[C@H]4C)c2=O)c(F)cc1S(=N)(=O)C1CC1 (single isomer, unassigned) [Compound 190]
0.0096 | Cc1cc(-n2nc3c(c2-n2ccn(-c4ccc5c(c4F)CN=S5(=O)C4CC4)c2=O)[C@H](C)N(C(=O)c2cc4cc([C@H]5CCOC(C)(C)C5)ccc4n2[C@@]2(c4noc(=O)[nH]4)C[C@@H]2C)CC3)cc(C)c1F (single isomer, unassigned) [Compound 191]
0.039 | CN=S(=O)(c1ccc(-n2ccn(-c3c4c(nn3-c3cc(C)c(F)c(C)c3)CCN(C(=O)c3cc5cc([C@H]6CCOC(C)(C)C6)ccc5n3[C@@]3(c5noc(=O)[nH]5)C[C@@H]3C)[C@H]4C)c2=O)c(F)c1C)C1CC1 (single isomer, unassigned) [Compound 196]
